The test system of experiment [1] is genotype 1b-Con1 subgenomic replicon cell line. Kind of experiment: microbe, parasite or virus in culture. The format is cell-based, HCV. The conditions noted are these: Hepatitis C virus, 72 h, read-out: EC50 1b.
Experiment [2] has as its target T1, HCV polymerase 1B (Δ21 NS5B) (Hepatitis C virus genotype 1b, UniProt P26663).
T1 construct: 20 to 50nM Δ21 NS5B
The experiment can be described thus: biochemical. How it is done:
(§1) Either two-fold serial dilutions (fractional inhibition assay) or a narrower range of dilutions spanning the IC50 of the inhibitor (tight binding assay) of the inhibitors were incubated with 20mM Tris-Cl pH 7.4, 2 mM MnCl2, 1 mM dithiothreitol, 1 mM ethylene diamine tetraacetic acid (EDTA), 60 to 125μM GTP and 20 to 50nM Δ21 NS5B (HCV Strain 1B (BK, Genbank accession number M58335, or H77, Genbank accession number AF011751)) for 15min at room temperature. The reaction was initiated by the addition of 20μM CTP, 20μM ATP, 1μM ^3H-UTP (10mCi/umol), 5nM template RNA and 0.1 U/μl RNase inhibitor (RNasin, Promega), and allowed to proceed for 2 to 4h at room temperature. Reaction volume was 50μl. The reaction was terminated by the addition of 1 volume of 4mM spermine in 10mM Tris-Cl pH 8.0, 1mM EDTA. After incubation for at least 15 min at room temperature, the precipitated RNA was captured by filtering through a GF/B filter (Millipore) in a 96 well format. The filter plate was washed three times with 200μl each of 2mM spermine, 10mM Tris-Cl pH 8.0, lmM EDTA, and 2 times with ethanol. After air-drying, 30μl of Microscint 20 scintillation cocktail (Packard) was added to each well, and the retained cpm were determined by scintillation counting. […] Retained cpm were plotted vs. inhibitor concentration and fit to equation 1 using non-linear regression (ref. 1) to obtain the IC50 values: Retained cpm=A[sqrt{(IC50+It−Et)^2+4*IC50*Et}−([…])]
Ref. Morrison, J. F. and S. R. Stone. 1985. Approaches to the study and analysis of the inhibition of enzymes by slow- and tight-binding inhibitors. Comments Mol. Cell. Biophys. 2: 347-368.
(§2) The sequence of the template RNA used was: 5′-[…]-3′

Experiment [3] concerns genotype 1a-H77 subgenomic replicon cell line. The experiment can be described thus: microbe, parasite or virus in culture. In kind it is cell-based, HCV. As to conditions: Hepatitis C virus, 72 h, read-out: EC50 1a.
The target in experiment [4] is T2, HCV polymerase 1A (Δ21 NS5B) (Hepatitis C virus genotype 1a, UniProt P27958).
T2 construct: 20 to 50nM Δ21 NS5B
T2 sequence (P27958 2421-2990, stated change not applied): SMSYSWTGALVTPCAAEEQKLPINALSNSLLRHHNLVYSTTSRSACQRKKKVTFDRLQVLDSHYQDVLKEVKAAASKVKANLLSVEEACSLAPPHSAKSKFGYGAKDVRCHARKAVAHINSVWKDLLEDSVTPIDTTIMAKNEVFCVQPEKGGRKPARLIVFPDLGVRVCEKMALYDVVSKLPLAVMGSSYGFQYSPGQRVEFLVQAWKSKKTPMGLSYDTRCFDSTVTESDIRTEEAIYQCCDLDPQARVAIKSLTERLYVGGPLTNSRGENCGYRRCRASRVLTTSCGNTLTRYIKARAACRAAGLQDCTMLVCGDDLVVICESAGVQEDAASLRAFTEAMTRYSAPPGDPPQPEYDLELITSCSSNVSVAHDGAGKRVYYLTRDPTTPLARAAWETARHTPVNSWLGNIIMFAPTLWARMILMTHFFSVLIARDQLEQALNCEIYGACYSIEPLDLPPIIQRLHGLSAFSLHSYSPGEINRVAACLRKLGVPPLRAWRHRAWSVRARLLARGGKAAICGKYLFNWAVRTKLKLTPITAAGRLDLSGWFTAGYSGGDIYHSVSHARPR
Kind of experiment: HCV Polymerase Inhibition Assay (1a). The format is biochemical. As to the method:
as §1, with “The” for “Either two-fold serial dilutions (fractional inhibition assay) or a narrower range of dilutions spanning the IC50 of the inhibitor (tight binding assay) of the inhibitors were incubated with 20mM Tris-Cl pH 7.4, 2 mM MnCl2, 1 mM dithiothreitol, 1 mM ethylene diamine tetraacetic acid (EDTA), 60 to 125μM GTP and 20 to 50nM Δ21 NS5B (HCV Strain 1B (BK, Genbank accession number M58335, or H77, Genbank accession number AF011751)) for 15min at room temperature. The”
Ref. Morrison, J. F. and S. R. Stone. […] Approaches to the study and analysis of the inhibition of enzymes by slow- and tight-binding inhibitors. Comments Mol. Cell. Biophys.
as §2

Where two headings read alike, the source gives them in different places.

T1 sequence (P26663 2420-2989, stated change not applied): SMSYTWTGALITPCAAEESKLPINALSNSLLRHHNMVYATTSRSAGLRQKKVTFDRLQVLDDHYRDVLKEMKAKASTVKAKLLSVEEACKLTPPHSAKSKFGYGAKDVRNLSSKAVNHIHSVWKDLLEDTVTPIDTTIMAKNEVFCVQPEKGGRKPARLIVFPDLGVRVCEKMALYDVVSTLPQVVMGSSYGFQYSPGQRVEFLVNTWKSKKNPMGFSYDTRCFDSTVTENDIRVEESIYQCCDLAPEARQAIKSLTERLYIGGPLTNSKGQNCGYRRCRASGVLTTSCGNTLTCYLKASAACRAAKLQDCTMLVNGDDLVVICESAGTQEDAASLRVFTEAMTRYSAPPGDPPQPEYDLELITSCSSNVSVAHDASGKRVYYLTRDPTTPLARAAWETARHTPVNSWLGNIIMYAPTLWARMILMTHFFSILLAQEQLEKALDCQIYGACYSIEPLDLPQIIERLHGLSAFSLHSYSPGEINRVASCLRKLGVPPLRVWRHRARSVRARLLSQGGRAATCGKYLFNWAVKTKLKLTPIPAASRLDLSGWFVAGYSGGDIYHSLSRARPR

Turning to `CCC(C)(C)c1cc(-n2ccc(=O)[nH]c2=O)cc(-c2ccc3cc(NS(C)(=O)=O)ccc3c2)c1OC` [IB-L0-2.52, N-(6-(5-(2,4-dioxo-3,4-dihydropyrimidin-1(2H)-yl)-2-methoxy-3-tert-pentylphenyl)naphthalen-2-yl)methanesulfonamide], the values for the EC50 in experiment [1] and in experiment [3] were < 10 nM and 10 to 100 nM, respectively. Also, the IC50 was 10 to 100 nM in experiment [2] and < 10 nM in experiment [4].

As to `COc1c(-c2ccc3ncsc3c2)cc(-n2ccc(=O)[nH]c2=O)cc1C(C)(C)C` [IB-L0-2.33, 1-(3-(benzo[d]thiazol-6-yl)-5-tert-butyl-4-methoxyphenyl)pyrimidine-2,4(1H,3H)-dione], the concentration giving a half-maximal response (EC50) in experiment [1] and in experiment [3] was 100 to 1000 nM in each case. In addition, the IC50 in experiment [2] and in experiment [4] was 10 to 100 nM in each case.

Regarding `CCCNc1nc2ccc(-c3cc(-n4ccc(=O)[nH]c4=O)cc(C(C)(C)C)c3OC)cc2s1` [IB-L0-2.46, 1-(3-tert-butyl-4-methoxy-5-(2-(propylamino)benzo[d]thiazol-6-yl)phenyl)pyrimidine-2,4(1H,3H)-dione], the IC50 in experiment [2] and in experiment [4] was 100 to 1000 nM each time.

In the case of `COc1c(-c2nc3ccc(NS(C)(=O)=O)cc3o2)cc(N2CCC(=O)NC2=O)cc1C(C)(C)C` [IA-L0-2.5, N-(2-(3-tert-butyl-5-(2,4-dioxotetrahydropyrimidin-1(2H)-yl)-2-methoxyphenyl)benzo[d]oxazol-6-yl)methanesulfonamide], the 50% effective concentration (EC50) in experiment [1] and in experiment [3] was > 1000 nM each time. Also, the IC50 in experiment [2] and in experiment [4] was 100 to 1000 nM each time.

As for `CC(C)(C)c1cc(-c2ccc3cc(NS(C)(=O)=O)ccc3c2)cc(-n2ccc(=O)[nH]c2=O)c1` [IB-L0-2.8, N-(6-(3-tert-butyl-5-(2,4-dioxo-3,4-dihydropyrimidin-1(2H)-yl)phenyl)naphthalen-2-yl)methanesulfonamide], in experiment [1], the EC50 was in the range of 10 to 100 nM. Moreover, the IC50 in experiment [2] and in experiment [4] was 10 to 100 nM throughout.

As to `COc1c(-c2ccc3c(c2)CC=C3CN(C)S(C)(=O)=O)cc(-n2ccc(=O)[nH]c2=O)cc1C(C)(C)C` [IB-L0-2.16], the IC50 in experiment [2] was 10 to 100 nM; in experiment [4], < 10 nM.

For the compound `COc1c(-c2ccc3nc(-n4c(C)ccc4C)sc3c2)cc(-n2ccc(=O)[nH]c2=O)cc1C(C)(C)C` [IB-L0-2.47, 1-(3-tert-butyl-5-(2-(2,5-dimethyl-1H-pyrrol-1-yl)benzo[d]thiazol-6-yl)-4-methoxyphenyl)pyrimidine-2,4(1H,3H)-dione], the IC50 in experiment [2] and in experiment [4] was > 1000 nM in each case.

For `COc1c(-c2ccc3cc(NS(C)(=O)=O)ccc3n2)cc(-n2ccc(=O)[nH]c2=O)cc1C(C)(C)C` [IB-L0-2.48, N-(2-(3-tert-butyl-5-(2,4-dioxo-3,4-dihydropyrimidin-1(2H)-yl)-2-methoxyphenyl)quinolin-6-yl)methanesulfonamide], the IC50 in experiment [2] and in experiment [4] was > 1000 nM in each case.

In the case of `CC(C)(C)c1cc(-n2ccc(=O)[nH]c2=O)cc(-c2ccc3c(CNS(C)(=O)=O)csc3c2)c1Cl` [IB-L0-2.35, N-((6-(3-tert-butyl-2-chloro-5-(2,4-dioxo-3,4-dihydropyrimidin-1(2H)-yl)phenyl)benzo [b]thiophen-3-yl)methyl)methanesulfonamide], the EC50 in experiment [1] was 100 to 1000 nM; in experiment [3], > 1000 nM.

`COc1c(-c2ccc3nc(NC(C)=O)sc3c2)cc(-n2ccc(=O)[nH]c2=O)cc1C(C)(C)C` [IB-L0-2.49, N-(6-(3-tert-butyl-5-(2,4-dioxo-3,4-dihydropyrimidin-1(2H)-yl)-2-methoxyphenyl)benzo[d]thiazol-2-yl)acetamide]: the IC50 in experiment [2] and in experiment [4] was > 1000 nM each time.

As for `COc1c(-c2ccc3c(CNS(C)(=O)=O)csc3c2)cc(-n2ccc(=O)[nH]c2=O)cc1C(C)(C)C` [IB-L0-2.11], the results for the EC50 in experiment [1] and in experiment [3] were < 10 nM and 10 to 100 nM, respectively.

For the compound `COc1c(-c2ccc3c(c2)CCC3CNS(C)(=O)=O)cc(-n2ccc(=O)[nH]c2=O)cc1C(C)(C)C` (stereo not shown) [IB-L0-2.17, N-((5-(3-tert-butyl-5-(2,4-dioxo-3,4-dihydropyrimidin-1(2H)-yl)-2-methoxyphenyl)-2,3-dihydro-1H-inden-1-yl)methyl)methanesulfonamide], the EC50 in experiment [1] was < 10 nM; in experiment [3] it was 10 to 100 nM.

In the case of `COc1c(-c2ccc3c(CN(C)S(C)(=O)=O)csc3c2)cc(-n2ccc(=O)[nH]c2=O)cc1C(C)(C)C` [IB-L0-2.21], the figures for the EC50 in experiment [1] and in experiment [3] were 10 to 100 nM and 100 to 1000 nM, respectively.

Consider `COc1c(-c2ccc3c(c2)CC[C@H]3C(C)(C)NS(C)(=O)=O)cc(-n2ccc(=O)[nH]c2=O)cc1C(C)(C)C` (single isomer, unassigned) [IB-L0-2.37], for which the EC50 was 100 to 1000 nM in experiment [1] and > 1000 nM in experiment [3].

Turning to `COc1c(-c2ccc3c(c2)CCC3C(=O)NS(C)(=O)=O)cc(-n2ccc(=O)[nH]c2=O)cc1C(C)(C)C` (stereo not shown) [IB-L0-2.34, 5-(3-tert-butyl-5-(2,4-dioxo-3,4-dihydropyrimidin-1(2H)-yl)-2-methoxyphenyl)-N-(methylsulfonyl)-2,3-dihydro-1H-indene-1-carboxamide], the EC50 in experiment [1] is 100 to 1000 nM; in experiment [3] it was > 1000 nM.

On to `COc1c(-c2ccc3c(c2)CC=C3CNS(C)(=O)=O)cc(-n2ccc(=O)[nH]c2=O)cc1-c1ccco1` [IB-L0-2.65], for which the EC50 lay in the range of 10 to 100 nM in experiment [1] and 100 to 1000 nM in experiment [3].

Regarding `COc1c(-c2ccc3c(c2)CC/C3=N\NS(C)(=O)=O)cc(-n2ccc(=O)[nH]c2=O)cc1C(C)(C)C` [IB-L0-2.4, (E)-N′-(5-(3-tert-butyl-5-(2,4-dioxo-3,4-dihydropyrimidin-1(2H)-yl)-2-methoxyphenyl)-2,3-dihydro-1H-inden-1-ylidene)methanesulfonohydrazide], in experiment [1], the EC50 is < 10 nM. The IC50 in experiment [2] and in experiment [4] was < 10 nM throughout.

`COc1c(-c2ccc3c(c2)CC[C@@H]3C(C)(C)NS(C)(=O)=O)cc(-n2ccc(=O)[nH]c2=O)cc1C(C)(C)C` (single isomer, unassigned) [IB-L0-2.22]: the EC50 was in the range of 10 to 100 nM in experiment [1] and 100 to 1000 nM in experiment [3].

Regarding `COc1c(-c2ccoc2)cc(-n2ccc(=O)[nH]c2=O)cc1-c1ccc2c(c1)CC=C2CNS(C)(=O)=O` [IB-L0-2.67], the EC50 in experiment [1] fell in the range of 10 to 100 nM; in experiment [3], 100 to 1000 nM.

For `CC(C)(C)c1cc(-c2ccc3c(c2)CC/C3=N\NS(C)(=O)=O)cc(-n2ccc(=O)[nH]c2=O)c1` [IB-L0-2.7, (E)-N-(5-(3-tert-butyl-5-(2,4-dioxo-3,4-dihydropyrimidin-1(2H)-yl)phenyl)-2,3-dihydro-1H-inden-1-ylidene)methanesulfonohydrazide], the figures for the EC50 in experiment [1] and in experiment [3] were 10 to 100 nM and 100 to 1000 nM, respectively.

Turning to “N,N′-(6,6′-(5-(2,4-dioxo-3,4-dihydropyrimidin-1(2H)-yl)-2-methoxy-1,3-phenylene) bis(naphthalene-6,2-diyl))dimethanesulfonamide [IB-L0-2.76]”, the IC50 in experiment [2] (HCV polymerase 1b, read-out: IC50 1b) was > 1000 nM; in experiment [4] (HCV polymerase 1a, read-out: IC50 1a) it was 100 to 1000 nM.

Consider `COC(=O)NN=C1CCc2cc(-c3cc(-n4ccc(=O)[nH]c4=O)cc(C(C)(C)C)c3OC)ccc21` [IB-L0-2.24, methyl 2-(5-(3-tert-butyl-5-(2,4-dioxo-3,4-dihydropyrimidin-1 (2H)-yl)-2-methoxyphenyl)-2,3-dihydro-1H-inden-1-ylidene)hydrazinecarboxylate], for which the EC50 in experiment [1] and in experiment [3] was 10 to 100 nM throughout.

A word on the EC50: it is the concentration needed to bring the measured effect to its halfway point. A word on the IC50: it is the concentration that inhibits the measured activity by half.

The record behind these values is patent publication US8501238B2, “Anti-infective agents and uses thereof” (priority 2007, dated 2013).
